Data: article PMC10442743 (Dalton Transactions (Cambridge, England : 2003), 2023)
Where two headings read alike, the source gives them in different places.

Key:
[1] = system: 6-mer dsDNA (DNA, duplex) AGGCAG/CTGCCT; test: ESI tandem mass spectrometry; details: MilliQ water pH 7, 37 °C, 3:1 mixed; 24 h or 72 h (ESI); non-covalent
[2] = system: 14-mer ssDNA (DNA, single strand) ATACATGGTACATA; test: ESI tandem mass spectrometry; details: MilliQ water pH 7, 37 °C, 24 h; compound:DNA 3:1 mixed; adduct seen as [Ru(toluene)(PPh3)]2+; non-covalent
ct-DNA = details: cited from earlier work
ctDNA = test: Circular dichroism / induced circular dichroism with calf thymus DNA; details: DNA
Procedure: Calf thymus (ct) DNA (Merck®) was used to perform the circular dichroism assay to detect conformational changes in the ctDNA induced by the compounds. CD spectral data was collected on a Chirascan™ V100 (Applied Photophysics) spectropolarimeter equipped with a large area Avalanche photodiodes detector and computer-controlled thermoelectrical cell holder using a 1 cm path length quartz cuvette. CD spectra of ctDNA in the absence and presence of different concentrations of 11Cl were recorded at wavelengths ranging from 320 to 190 nm under constant nitrogen flush at 25 °C. For each CD spectrum, the number of scans was set to 5, and spectral data were collected at 0.1 ms intervals. Additionally, methyl green (MG) and 4′,6-diamidino-2-phenylindole (DAPI), and propidium iodide (PI) were analyzed as minor and major groove binders and as an intercalator, respectively, to help identify the binding mode of 11Cl to DNA. Samples were prepared in 10 mM Tris-HCl buffer (pH 7.6) with 1 mM EDTA. The concentration of ctDNA was fixed at 100 μM (concerning base pairs) and the ctDNA to 11Cl ratio was varied between 0 and 1. The samples were incubated for 24 h at 37 °C and then analyzed in the CD spectropolarimeter.

MCF-7 = details: literature value ref 41; read-out: cytotoxicity (IC50) MCF-7; cited from earlier work
MDA-MB-231 = details: literature value ref 42; read-out: cytotoxicity (IC50) MDA-MB-231; cited from earlier work

Row | SMILES | binding [1] | binding [2] | Kprobe, binding constant of the probe to DNA (ct-DNA; used in eqn (4) ref 92) | CD band 268 nm, intensity change (ctDNA; 268 nm part of the 268−280 nm band) | CD band 280 nm, intensity change (ctDNA; 280 nm part of the 268−280 nm band) | CD band 210 nm, intensity change (ctDNA; 24 h, 37 °C) | CD band 210 nm, wavelength shift (ctDNA; 24 h, 37 °C) | CD band 220 nm (hydrogen bonding), intensity change (ctDNA; 24 h, 37 °C) | CD band 220 nm (hydrogen bonding), wavelength shift (ctDNA; 24 h, 37 °C) | CD band 246 nm (helicity), intensity change (ctDNA; 24 h, 37 °C) | CD band 246 nm (helicity), wavelength shift (ctDNA; 24 h, 37 °C) | CD band 268−280 nm (base-pair stacking interactions), wavelength shift (ctDNA; 24 h, 37 °C) | Kprobe, binding constant of the probe to DNA (ct-DNA; used in eqn (4) ref 91) | CD band 268−280 nm (base-pair stacking interactions), intensity change (ctDNA; 24 h, 37 °C) | IC50 (MCF-7) | IC50 (MDA-MB-231)
1 | Cc1ccccc1.[Cl-].[Ru+2].c1ccc(P(c2ccccc2)c2ccccc2)cc1.c1ccc(P(c2ccccc2)c2ccccc2)cc1 | yes | yes |  |  |  |  |  |  |  |  |  |  |  |  |  | 
2 | N=C(N)c1ccc(-c2cc3ccc(C(=N)N)cc3[nH]2)cc1 [DAPI] |  |  | 5e+06 M⁻¹ | Hyperchromic | Hypochromic | Hypochromic | Red | Hyperchromic | Blue shift | Unchanged | Unchanged | Unchanged |  |  |  | 
3 | CN(C)c1ccc(C(=C2C=CC(=[N+](C)C)C=C2)c2ccc([N+](C)(C)C)cc2)cc1.[Cl-].[Cl-] [MG, methyl green] |  |  |  |  |  | Hypochromic | Blue | Hyperchromic | Blue shift | Hypochromic | Unchanged | Unchanged | 900000 M⁻¹ | Unchanged |  | 
4 | N.N.[Cl][Pt][Cl] [cisplatin] |  |  |  |  |  |  |  |  |  |  |  |  |  |  | 28 ± 6 µM | 38.7 ± 0.03 µM
